Data published in patent US8835644B2, “Broad spectrum benzothiophene-nitrothiazolide and other antimicrobials” (University of Virginia Patent Foundation, priority 2009, dated 2014).
Values after ≈ are worked out from the molar mass of the structure shown. Where two headings read alike, the source gives them in different places.

Tests used:
[1] = tested on: H. pylori; experiment: MIC testing by broth dilution, H. pylori; type: cell-based, Helicobacter pylori
Method: (§1) A standard broth dilution protocol was used in 96 well microplates containing a standard dilution of the microorganism to be tested in 100 microliters of the appropriate medium. Appropriate medium: E. coli, LB medium; Staphylococcus strains, Trypticase Soy; and for H. pylori and C. jejuni, Brain Heart Infusion. The compounds to be tested were set at 32 μg/ml in 200 microliters in well one and then serially diluted to provide a range from 32 to 0.06. The wells were scored visually at 24 h. The well where there was no growth was recorded as the MIC. Clostridium difficile was tested by agar diffusion and disk diffusion (Kirby Bower) methods under anaerobic conditions on Wilkins Chalgrin agar. In these assays, zone of inhibited growth was measured and compared by relative ratio to the zone recorded for NTZ.
(§2) Representative compounds of the invention were tested in a series of assays against a series of organisms as described above. […] The organisms tested include, C. difficile, H. pylori, C. jejuni, MRSA, S. epidermidis, and E. coli. S. epidermidis and E. coli were tested in the plank and biofilm assay. A disk diffusion assay was also used for C. difficile. Direct PFOR enzyme assays were also performed. All analogues and derivatives were not tested on every organism in every type of assay (the “-” in each table means that it was not tested).

[2] = tested on: MRSA; experiment: MIC testing by broth dilution, MRSA; type: cell-based, Staphylococcus aureus
Method: as §1, §2

[3] = tested on: S. epidermidis; experiment: MIC testing by broth dilution, S. epidermidis plank; type: cell-based, Staphylococcus epidermidis
Method: as §1, §2

[4] = tested on: C. jejuni; experiment: MIC testing by broth dilution, C. jejuni; type: cell-based, Campylobacter jejuni
Method: as §1, §2

[5] = tested on: S. epidermidis biofilm; experiment: S. epidermidis biofilm assay (activity tables); type: cell-based, Staphylococcus epidermidis; conditions: for MIC S. epidermidis Biofilm: Furan analogues table
Method: Staphylococcal strains were cultured overnight in TSB at 37° C. with shaking, diluted in fresh medium to an OD600 of 0.01 and 200 W was dispensed into sterile flat bottom polystyrene 96 well microtiter plates (Costar 3596, Corning Inc.). […] Each compound and dilution was tested in triplicate. The plates were incubated overnight at 37° C. in a humidified incubator, without shaking and both growth and biofilm accumulation were determined at 16 h.
Following recording of turbidities, the culture medium was aspirated and the wells were washed three times with distilled water, blotted on paper towels, and fixed with 75% ethanol for 10 minutes.
To visualize biofilm material, 0.5% crystal violet was added to each well and after 5 minutes was removed and the wells washed three times with distilled water. Plates were read using a microplate reader at a wavelength of 570 nm. The dye was then extracted by adding 200 W of 95% ethanol, and the absorbance was read again at 570 nm. All assays were performed in triplicate and the mean and standard deviation determined. […]
as §2

[6] = tested on: E. coli biofilm; experiment: E. coli biofilm assay (activity tables); type: cell-based, Escherichia coli; conditions: biofilm
Method: A quantitative biofilm assay was used to determine the effect of NTZ on biofilm formation (41). Strain 042 was grown overnight at 37° C. with shaking and inoculated 1:100 in 200 μl culture medium in Costar 96-well, flat-bottom, polystyrene microtiter plates containing appropriate concentrations of NTZ. Plates were incubated statically at 37° C. in a humidified incubator. At 24 h, bacterial growth was measured by either transferring […] aliquots to another microtiter plate to determine turbidity or by diluting 100 μl aliquots 1:100 in 9.9 ml PBS for quantitative plate counts on LB medium. Bacterial counts in triplicate are reported as cfu/ml. Biofilm was visualized following staining with 0.5% crystal violet (41) and the absorbance was read at 570 nm using a microplate reader (Molecular Dynamics). All experiments were in triplicate and reported as mean and standard deviation.
as §1, §2

[7] = tested on: E. coli; experiment: MIC testing by broth dilution, E. coli plank; type: cell-based, Escherichia coli
Method: as §1, §2

[8] = tested on: C. difficile; experiment: Disk diffusion (Kirby Bower), C. difficile; type: cell-based, Clostridium difficile; conditions: zone of inhibited growth as relative ratio to the zone for NTZ
Method: as §1, §2

[9] = broth dilution, Brain Heart Infusion, 24 h, read-out: MIC (μM) H. pylori
[10] = broth dilution, Trypticase Soy, 24 h, read-out: MIC (μM) MRSA
[11] = broth dilution, Trypticase Soy, 24 h, read-out: MIC (μM) S. epidermidis Plank
[12] = broth dilution, Brain Heart Infusion, 24 h, read-out: MIC (μM) C. jejuni
[13] = read-out: MIC (μM) E. coli Biofilm
[14] = broth dilution, LB medium, 24 h, read-out: MIC (μM) E. coli Plank
[15] = Furan analogues table, read-out: MIC H. pylori
[16] = Furan analogues table, read-out: MIC MRSA
[17] = planktonic, Furan analogues table, read-out: MIC S. epidermidis Plank
[18] = Furan analogues table, read-out: MIC C. jejuni
[19] = Furan analogues table, read-out: MIC E. coli Biofilm
[20] = planktonic, Furan analogues table, read-out: MIC E. coli Plank

MIC [1, 15] [µM]	MIC [2, 16] [µM]	MIC [3, 17] [µM]	MIC [4, 18] [µM]	MIC S. epidermidis Biofilm [5] [µM]	MIC [6, 19] [µM]	MIC [7, 20] [µM]	Compound	MIC [1, 9] [µM]	MIC [2, 10] [µM]	MIC [3, 11] [µM]	MIC [4, 12] [µM]	MIC (μM) S. epidermidis Biofilm [5] [µM]	MIC [6, 13] [µM]	MIC [7, 14] [µM]	Disk Diffusion (%) C. difficile [8] [%]
							O=C(Nc1ncc([N+](=O)[O-])s1)c1ccccc1C(F)(F)F [VPC161182]	1.6 (≈ 0.508 µg/mL)	25.2 (≈ 7.99 µg/mL)	25.2 (≈ 7.99 µg/mL)	18.9 (≈ 6 µg/mL)	50.4 (≈ 16 µg/mL)	100.9 (≈ 32 µg/mL)	100.9 (≈ 32 µg/mL)	
							N#Cc1cccc(C(=O)Nc2ncc([N+](=O)[O-])s2)c1 [VPC161173]	4.1 (≈ 1.12 µg/mL)	43.8 (≈ 12 µg/mL)	29.2 (≈ 8.01 µg/mL)	36.5 (≈ 10 µg/mL)	58.3 (≈ 16 µg/mL)	116.7 (≈ 32 µg/mL)	116.7 (≈ 32 µg/mL)	
							CC(=O)Nc1ncc([N+](=O)[O-])s1 [VPC16a1033]	3.5 (≈ 0.655 µg/mL)	171.0 (≈ 32 µg/mL)	21.4 (≈ 4.01 µg/mL)	14.0 (≈ 2.62 µg/mL)	21.4 (≈ 4.01 µg/mL)	42.7 (≈ 7.99 µg/mL)	42.7 (≈ 7.99 µg/mL)	
							CC1=C(C(=O)Nc2ncc([N+](=O)[O-])s2)Cc2ccccc21 [VPC16a1018]	0.7 (≈ 0.211 µg/mL)	106.2 (≈ 32 µg/mL)	106.2 (≈ 32 µg/mL)	10.7 (≈ 3.22 µg/mL)	26.5 (≈ 7.99 µg/mL)	53.1 (≈ 16 µg/mL)	106.2 (≈ 32 µg/mL)	
6.9 (≈ 2.49 µg/mL)	44.4 (≈ 16 µg/mL)	11.1 (≈ 4 µg/mL)	16.7 (≈ 6.02 µg/mL)	11.1 (≈ 4 µg/mL)	88.8 (≈ 32 µg/mL)	88.8 (≈ 32 µg/mL)	O=C(Nc1ncc([N+](=O)[O-])s1)c1ccc(-c2cccc([N+](=O)[O-])c2)o1 [VPC161190]								
							O=C(Nc1ncc([N+](=O)[O-])s1)c1ccncc1 [VPC161177]	16.0 (≈ 4 µg/mL)	127.9 (≈ 32 µg/mL)	127.9 (≈ 32 µg/mL)	24.0 (≈ 6.01 µg/mL)	127.9 (≈ 32 µg/mL)	127.9 (≈ 32 µg/mL)	127.9 (≈ 32 µg/mL)	
							COc1ccccc1C(=O)Nc1ncc([N+](=O)[O-])s1 [VPC161192]	1.8 (≈ 0.503 µg/mL)	114.6 (≈ 32 µg/mL)	114.6 (≈ 32 µg/mL)	17.9 (≈ 5 µg/mL)	114.6 (≈ 32 µg/mL)	57.3 (≈ 16 µg/mL)	114.6 (≈ 32 µg/mL)	
1.1 (≈ 0.422 µg/mL)	11.4 (≈ 4.37 µg/mL)	5.7 (≈ 2.18 µg/mL)	8.5 (≈ 3.26 µg/mL)	5.7 (≈ 2.18 µg/mL)	90.8 (≈ 34.8 µg/mL)	90.8 (≈ 34.8 µg/mL)	O=C(Nc1ncc([N+](=O)[O-])s1)c1ccc(-c2cccc(C(F)(F)F)c2)o1 [VPC161197]								
							O=C(Nc1ncc([N+](=O)[O-])s1)c1cccc(F)c1 [VPC161166]	0.9 (≈ 0.241 µg/mL)	16.8 (≈ 4.49 µg/mL)	22.5 (≈ 6.01 µg/mL)	11.2 (≈ 2.99 µg/mL)	59.9 (≈ 16 µg/mL)	59.9 (≈ 16 µg/mL)	119.7 (≈ 32 µg/mL)	
							O=C(CCc1ccccc1)Nc1ncc([N+](=O)[O-])s1 [VPC16b1030]	0.3 (≈ 0.0832 µg/mL)	115.4 (≈ 32 µg/mL)	14.4 (≈ 3.99 µg/mL)	1.30 (≈ 0.36 µg/mL)		50.5 (≈ 14 µg/mL)	115.4 (≈ 32 µg/mL)	54.5 ± 0.5
